# Measured values reported in patent publication US20060094741A1, “Remedies for neuropathic pain and model animals of neuropathic pain” (Toray Industries, Inc., a corporation of Japan, priority 1999, published 2006).
# “Also recorded” adds a separate entry of the source.
# How the values were obtained:
# [1] = tested on: pain-related behavior induced by intrathecal administration of Compound 1; test: Inhibition of tentative responses for nociception (scratching, biting, licking) induced by intrathecal Compound 1; format: in vivo, mouse
# Procedure: (§1) Scratching, biting, and licking behavior was regarded as an index of tentative responses for nociception, and the duration of such behavior was measured for 5 minutes from 5 minutes after the administration of Compound 1 in a transparent acrylic cage (20×13×10 cm) in a single-blind manner.
# (§2) Mice (ddY; weighing 22 to 25 g when the experiment was started) were kept in a plastic cage at a constant temperature and humidity (22±1° C., 55±5%) under a 12-hour light-dark cycle. The mice had free access to food and water.
# Compound 1 was dissolved in a physiological saline solution (Ohtsuka Pharmaceutical Co., Ltd.) and was intrathecally administered to the mice without anesthetization. The intrathecal dose of the drug solution per mouse was 4 μl, and a 30 gauge needle and a 25 μl Hamilton syringe were used according to the method disclosed by Hylden and Wilcox (J. L. K. Hylden & G. L. Wilcox, Eur. J. Pharmacol., 67: 313-316, 1980).
# (−)-17cyclopropyl-3,1 4β-dihydroxy-4,5α-epoxy-6β-[N-methyl-trans-3-(3-furyl) acrylamide] morphinan hydrochloride (Compound 2) (H. Nagase et al. Chem. Pharm. Bull. 46, 366, 1998), of which the formula is shown below, [drawing 14] as a selective opioid κ-receptor agonist compound, was intrathecally administered to the mice simultaneously with Compound 1, and the effect thereof on neuropathic pain was evaluated based on tentative responses for nociception, such as scratching, biting, and licking behavior, as indexes. The duration of such behavior was measured for 5 minutes from 5 minutes after the administration of the simultaneous administration of Compound 2 and Compound 1 (15 μg/mouse) in a transparent acrylic cage (20×13×10 cm) in a single-blind manner. Additionally, Compound 2 was dissolved in a physiological saline solution for use.
# In order to determine the effect of the drug on neuropathic pain, tentative responses for nociception were tested in the case in which a low dose of 1 or 3 nmol/mouse of Compound 2 was intrathecally administered simultaneously with Compound 1 in a manner similar to that of Example 2 and in the case in which Compound 2 was subcutaneously administered so that systemic exposure to the drug was evaluated. […] Since the effectiveness of Compound 2 has also been shown in systemic exposure, it has become clear that Compound 2 is effective even if the drug is not administered topically, that is, even if the drug is administered in various dosage forms which are pharmacologically acceptable.
# [2] = tested on: sciatic nerve ligation mouse model; test: Sciatic nerve ligation mouse model, allodynia/hyperalgesia by von Frey hairs; format: in vivo; conditions: subcutaneous
# Text: The action of Compound 2 in inhibiting neuropathic pain was investigated using another, widely known neuropathic pain model. That is, the action of Compound 2 in a sciatic nerve ligation mouse model was investigated using a method in which the method disclosed by A. B. Malmberg and A. I. Basbaum (Pain, 76, 215-222, 1998) et al. was slightly modified. In order to measure allodynia or hyperalgesia generally observed in neuropathic pain, two von Frey hairs (0.17 and 1.48 g) having different strengths were used. Four weeks following the surgery, the mice were placed in an acrylic cage (90×100×300 mm) and allowed to acclimate for a minimum of 30 minutes. The von Frey hairs were applied perpendicularly to the soles of the hind feet so as to cause slight bending for a duration of approximately 3 seconds. This was repeated 6 times at intervals of several seconds. The reaction of the mouse was given a score in the manner described below.
# 2: Immediate escape reaction and flinching of hind paw
# The reactions of the surgically operated foot and the opposite foot as control were measured before the administration of the drug, and 30 minutes and 2 hours after the administration of the drug. The difference between the score of the surgically operated foot and the score of the control foot was evaluated as allodynia or hyperalgesia. […]
# [3] = tested on: pain associated with zosteriform skin lesions; test: Herpetic pain model, allodynia/hyperalgesia associated with zosteriform skin lesions; format: in vivo; conditions: orally administered; thirty minutes after the administration
# Text: The therapeutic effect of Compound 2 on pain associated with zoster classified under neuropathic pain was investigated. The evaluation of the therapeutic effect was made using an animal model produced according to a method disclosed in Pain, 86, 95-101, 2000.
# mice (ddY) = test: Production of the neuropathic pain animal model: scratching, biting and licking behavior after intrathecal Compound 1; format: in vivo; conditions: 7.5 μg/mouse or more, measured for 5 minutes from 5 minutes after administration
# Procedure: as §2
# (+)-4a-(3-hydroxyphenyl)-2-methyl-1,2,3,4,4a, 5,12,12a-octahydrotrans-quinolino [2,3-g]isoquinoline (Compound 1) was dissolved in a physiological saline solution (Ohtsuka Pharmaceutical Co., Ltd.) and was intrathecally administered to the mice without anesthetization. The intrathecal dose of the drug solution per mouse was 4 μl, and a 30 gauge needle and a 25 μl Hamilton syringe were used according to the method disclosed by Hylden and Wilcox (J. L. K. Hylden & G. L. Wilcox, Eur. J. Pharmacol., 67: 313-316, 1980).
# as §1
# [4] = simultaneous intrathecal administration with 15 μg/mouse of Compound 1
compound,measurement,setting,value
"CN1CC[C@]23c4c5ccc(O)c4O[C@H]2[C@@H](O)C=C[C@H]3[C@H]1C5 [morphine, reference compound]",inhibition of tentative responses for nociception induced by Compound 1,[1]; [4],not inhibited at all
"CN(C(=O)/C=C/c1ccoc1)[C@@H]1CC[C@@]2(O)[C@H]3Cc4ccc(O)c5c4[C@@]2(CCN3CC2CC2)[C@H]1O5.Cl [Compound 2, (−)-17cyclopropyl-3,1 4β-dihydroxy-4,5α-epoxy-6β-[N-methyl-trans-3-(3-furyl)acrylamide] morphinan hydrochloride]",inhibition of tentative responses for nociception induced by Compound 1,"[1]; 10 nmol/mouse intrathecal, simultaneously with Compound 1 (15 μg/mouse), compared to physiological saline solution-treated group",significantly inhibited
same,inhibition of tentative responses for nociception induced by Compound 1,"[1]; low dose of 1 or 3 nmol/mouse intrathecal, simultaneously with Compound 1, hydrochloride",dose-dependent inhibitory action; also recorded: dose-dependently inhibited
same,inhibition of tentative responses for nociception induced by Compound 1,"[1]; subcutaneously administered (systemic exposure), hydrochloride",dose-dependent inhibitory action; also recorded: dose-dependently inhibited
same,allodynia or hyperalgesia (difference between score of surgically operated foot and control foot),[2]; after 2 hours,the effect of the drug disappeared
same,allodynia or hyperalgesia (difference between score of surgically operated foot and control foot),"[2]; thirty minutes after the administration, von Frey hairs 0.17 and 1.48 g",inhibited allodynia or hyperalgesia
same,allodynia or hyperalgesia associated with zosteriform skin lesions,[3],dose-dependently inhibited allodynia or hyperalgesia
"NCC(CC(=O)O)c1ccc(Cl)cc1 (stereo not shown) [Baclofen, reference compound]",inhibition of tentative responses for nociception induced by Compound 1,[1]; [4],inhibited dose-dependently
"CN1CC[C@@]2(c3cccc(O)c3)Cc3nc4ccccc4cc3C[C@@H]2C1 [Compound 1, (+)-4a-(3-hydroxyphenyl)-2-methyl-1,2,3,4,4a, 5,12,12a-octahydrotrans-quinolino [2,3-g]isoquinoline]","tentative responses for nociception (duration of scratching, biting, and licking behavior)",mice (ddY),increased significantly and dose-dependently
same,"tentative responses for nociception (duration of scratching, biting, and licking behavior)",mice (ddY); listed as Compound I,increases dose-dependently
